≈ marks a conversion by molar mass, not a printed value.
Settings: buffer; pH 7.4; 200.0 µM
`C=CCn1c(C(O)c2ccccc2)nc2ccccc21` (stereo not given) gave a solubility kinetic of 24.2 µg/mL (≈ 91.6 µM).
In the case of `O=C(NCCC(=O)N1CCCC1)c1ccccc1Cl`, the solubility kinetic is reported as over 42.1 µg/mL.
`O=C(CCc1ccccc1)NCc1ccncc1` gave a solubility kinetic of over 36 µg/mL.
`CC(C)(C)c1ccc(C(=O)NCc2ccccc2)cc1` gave a solubility kinetic of under 0.6 µg/mL.
`Nc1ccccc1C(=O)N1CCc2ccccc21` showed a solubility kinetic of over 35.7 µg/mL.
Work on `CCc1ccccc1OCC(=O)NCC1COc2ccccc2O1` (stereo not given) yielded a solubility kinetic of 14.9 µg/mL (≈ 45.5 µM).
With `Cc1cccc(OCc2nc3ccccc3n2C)c1.Cl` the solubility kinetic was 30.4 µg/mL.
`OCCN(CCO)c1nc2ccccc2[nH]1` gave a solubility kinetic of over 33.2 µg/mL.
`COC(=O)C1=C(C(=O)OC)SC(=C2C(=S)C(C)(C)N(C(=O)C3CC3)c3ccccc32)S1` showed a solubility kinetic of 11.2 µg/mL (≈ 23.5 µM).
With `Cc1cc(=O)[nH]c(SCc2ccc(Cl)cc2Cl)n1` the solubility kinetic was 1.2 µg/mL (≈ 3.98 µM).
With `O=c1[nH]c(/C=C/c2ccccc2)c([N+](=O)[O-])c(=O)[nH]1` the solubility kinetic was over 38.9 µg/mL.
In the case of `O=C(CSc1ccccc1)NC1CCCCCC1`, the solubility kinetic is reported as over 39.5 µg/mL.
For `CN(CCC#N)C(=S)Nc1ccc(F)cc1`, the solubility kinetic was 32.8 µg/mL (≈ 138 µM).
Work on `Cc1ccnc(NCc2c(O)ccc3ccccc23)c1` yielded a solubility kinetic of 9.2 µg/mL (≈ 34.8 µM).
Work on `COc1ccc(NC(=O)c2cc(=O)c3ccccc3o2)cc1Cl` yielded a solubility kinetic of under 0.7 µg/mL.
With `CCc1nonc1NC(=O)c1oc2cc(C)c(C)cc2c1C` the solubility kinetic was 0.3 µg/mL (≈ 1 µM).
In the case of `Cc1ccc(NC(=O)CN2CCOCC2)c(Br)c1`, the solubility kinetic is reported as over 47 µg/mL.
In the case of `O=C(Cc1ccccc1)Nc1ccc(NC(=O)c2cccnc2)cc1`, the solubility kinetic is reported as 3.2 µg/mL (≈ 9.66 µM).
`O=c1oc2cccnc2n1CCS(=O)(=O)c1ccc(F)cc1` showed a solubility kinetic of 45 µg/mL (≈ 140 µM).
Work on `COc1cc(NC(=O)N[C@@H](CCSC)C(=O)O)cc(OC)c1` yielded a solubility kinetic of over 49.3 µg/mL.
In the case of `Cc1ccc(N(C)C2=NC(=O)CS2)cc1Cl`, the solubility kinetic is reported as 34.8 µg/mL (≈ 137 µM).
`CC(=NCCc1ccccc1)C1=C(O)C(c2ccccc2)OC1=O` (stereo not given) gave a solubility kinetic of 31.7 µg/mL (≈ 98.6 µM).
`C=CCn1c(O)c(C(CC)=Nc2ccc(C(=O)O)cc2)c(=O)[nH]c1=O` gave a solubility kinetic of over 51.5 µg/mL.
With `CC(C)c1ccc(NC(=O)CSc2nc3ncccc3[nH]2)cc1` the solubility kinetic was 3.2 µg/mL (≈ 9.8 µM).
For `Fc1ccc(-c2cnc3n2CCCCC3)cc1`, the solubility kinetic was over 34.5 µg/mL.
With `COc1ccc(/C(N)=N/OC(=O)CCC2CCCC2)cc1OC` the solubility kinetic was 8 µg/mL (≈ 25 µM).
Compound `O=[N+]([O-])c1c(NCCCO)cc(Sc2ccc(Cl)cc2)c2nonc12` has a solubility kinetic of 18.7 µg/mL (≈ 49.1 µM).
In the case of `O=C(Nc1ccccc1)Nc1ccccc1C(=O)NCCCN1CCOCC1`, the solubility kinetic is reported as 46.3 µg/mL (≈ 121 µM).
`C=CCN(CC=C)CC(=O)Nc1cccc(Oc2cnccn2)c1` gave a solubility kinetic of over 48.7 µg/mL.
Work on `Cc1ccc(-c2nc(Cl)nc3ccccc23)cc1` yielded a solubility kinetic of 1.7 µg/mL (≈ 6.67 µM).
Work on `O=C(CCCSc1ccccc1)Nc1cccc(CO)c1` yielded a solubility kinetic of over 45.2 µg/mL.
`Cn1cnc(S(=O)(=O)N2CCN(c3ccc(F)cc3)CC2)c1` showed a solubility kinetic of over 48.7 µg/mL.
In the case of `CCOc1ccc(N2CC(C(=O)NCc3ccco3)CC2=O)cc1` (stereo not given), the solubility kinetic is reported as over 49.3 µg/mL.
Compound `N#CC1(NC(=O)COC(=O)/C=C/c2ccc3ccccc3n2)CCCCC1` has a solubility kinetic of 3 µg/mL (≈ 8.25 µM).
Work on `CCOc1ccc(NC(=O)COC(=O)C2CC2C)cc1` (stereo not given) yielded a solubility kinetic of over 41.6 µg/mL.
For `Cc1ccccc1Nc1nnc(SCC(=O)NCC2CCCO2)s1` (stereo not given), the solubility kinetic was over 54.7 µg/mL.
For `CC(C1CC1)N(C(=O)c1ccccc1[N+](=O)[O-])c1ccccc1` (stereo not given), the solubility kinetic was 13 µg/mL (≈ 41.9 µM).
With `O=c1[nH]cnc2c1C(c1ccccc1)c1c(nc[nH]c1=O)O2` the solubility kinetic was over 44.1 µg/mL.
In the case of `Cc1ccc(NC(=S)NCCc2c[nH]c3ccccc23)c(C)c1`, the solubility kinetic is reported as 20.4 µg/mL (≈ 63.1 µM).
In the case of `O=[N+]([O-])c1ccc(N2CCCCC2)cc1`, the solubility kinetic is reported as 19.9 µg/mL (≈ 96.5 µM).
`Cc1ccc(-c2csc(NC(=O)c3cccc(C)c3)c2C(=O)O)cc1` showed a solubility kinetic of over 52.7 µg/mL.
`O=C(Nc1ccccc1)c1ccccc1C(=O)N1CCCCC1` showed a solubility kinetic of 42.6 µg/mL (≈ 138 µM).
For `O=C(O)CC1(CC(=O)Nc2ccc(F)cc2F)CCCCC1`, the solubility kinetic was over 46.7 µg/mL.
With `O=Cc1c(NCCc2ccc(F)cc2)c2ccccc2[nH]c1=O` the solubility kinetic was 34.8 µg/mL (≈ 112 µM).
Compound `CCOC(=O)Cc1csc(NC(=O)Nc2ccc(Cl)cc2)n1` has a solubility kinetic of 1.3 µg/mL (≈ 3.83 µM).
`C/C=C/C(=O)N1c2ccc(C)cc2C(C)=CC1(C)C` showed a solubility kinetic of 1.2 µg/mL (≈ 4.7 µM).
With `CCOc1ncccc1C(=O)OCc1ccc([N+](=O)[O-])cc1` the solubility kinetic was 1.3 µg/mL (≈ 4.3 µM).
In the case of `COc1ccccc1CCN=C(N)NS(=O)(=O)c1ccc(C)c(C)c1`, the solubility kinetic is reported as 8.3 µg/mL (≈ 23 µM).
Compound `O=C(O)c1ccccc1-c1cc2ccccc2[nH]1` has a solubility kinetic of 29.9 µg/mL (≈ 126 µM).
Compound `Cc1nc2ccccc2nc1OCc1cccc([N+](=O)[O-])c1` has a solubility kinetic of 2 µg/mL (≈ 6.77 µM).
Compound `CCN(CC)c1ccc(N=CN2CCOCC2)cc1` has a solubility kinetic of 35.9 µg/mL (≈ 137 µM).
With `COc1ccc(NC(=O)Nc2cnccn2)cc1OC` the solubility kinetic was over 41.1 µg/mL.
With `O=C(COC(=O)c1cc([N+](=O)[O-])ccc1NCCO)Nc1cccnc1Cl` the solubility kinetic was 9.1 µg/mL (≈ 23.1 µM).
`O=C(Nc1nncs1)c1cc(-c2ccco2)nc2ccccc12` showed a solubility kinetic of over 48.4 µg/mL.
In the case of `CCN1CCN(S(=O)(=O)c2ccc3c4c(cccc24)C(=O)N3CC)CC1`, the solubility kinetic is reported as over 56 µg/mL.
For `O=C(/C=C\c1ccc2c(c1)OCO2)CC1(O)C(=O)Nc2ccccc21` (stereo not given), the solubility kinetic was 24.6 µg/mL (≈ 72.9 µM).
With `Nc1c(NC=O)c(=O)n(Cc2ccccc2)c(=O)n1Cc1ccccc1` the solubility kinetic was 52.1 µg/mL (≈ 149 µM).
Work on `O=C(CNC(=O)c1ccc2c(c1)OCO2)NCc1cccs1` yielded a solubility kinetic of 34.8 µg/mL (≈ 109 µM).
`CN1N=C(C(=O)Nc2ccc3c(c2)CCC3)CCC1=O` gave a solubility kinetic of over 40.7 µg/mL.
`CC1CN(CC(=O)Nc2ccc(S(N)(=O)=O)cc2)CC(C)O1` (stereo not given) showed a solubility kinetic of over 49.1 µg/mL.

— PubChem BioAssay AID1996
